“And” between values parts separate entries of the source, which are not always exact repeats. Equal entries are not always repeated.
Assay: molar heat capacity at constant pressure; xn = mol fraction of the nth substance listed
Settings: 100 kPa

[Si] [silicon] + [Li]
Settings	molar heat capacity at constant pressure
127.62 K, Crystal of intercomponent compound 2, relaxation calorimeter, x2 = 0.804	12.78 J/K/mol
127.64 K, Crystal of intercomponent compound 2, relaxation calorimeter, x2 = 0.804	12.84 J/K/mol
130 K, Crystal of intercomponent compound 1, relaxation calorimetry + DSC, x2 = 0.81	12.64 J/K/mol
130 K, Crystal of intercomponent compound 2, relaxation calorimetry + DSC, x2 = 0.804	13.04 J/K/mol
131.69 K, Crystal of intercomponent compound 1, relaxation calorimetry, x2 = 0.81	12.88 J/K/mol
131.69 K, Crystal of intercomponent compound 2, relaxation calorimeter, x2 = 0.804	13.22 J/K/mol
131.71 K, Crystal of intercomponent compound 2, relaxation calorimeter, x2 = 0.804	13.3 J/K/mol
135.76 K, Crystal of intercomponent compound 1, relaxation calorimetry, x2 = 0.81	13.31 J/K/mol
135.76 K, Crystal of intercomponent compound 2, relaxation calorimeter, x2 = 0.804	13.64 J/K/mol
135.78 K, Crystal of intercomponent compound 2, relaxation calorimeter, x2 = 0.804	13.71 J/K/mol
139.83 K, Crystal of intercomponent compound 1, relaxation calorimetry, x2 = 0.81	13.71 J/K/mol
139.83 K, Crystal of intercomponent compound 2, relaxation calorimeter, x2 = 0.804	14.04 J/K/mol
139.85 K, Crystal of intercomponent compound 2, relaxation calorimeter, x2 = 0.804	14.09 J/K/mol
140 K, Crystal of intercomponent compound 1, relaxation calorimetry + DSC, x2 = 0.81	13.65 J/K/mol
140 K, Crystal of intercomponent compound 2, relaxation calorimetry + DSC, x2 = 0.804	14.07 J/K/mol
143.86 K, Crystal of intercomponent compound 1, relaxation calorimetry, x2 = 0.81	14.08 J/K/mol
143.87 K, Crystal of intercomponent compound 2, relaxation calorimeter, x2 = 0.804	14.45 J/K/mol
143.88 K, Crystal of intercomponent compound 2, relaxation calorimeter, x2 = 0.804	14.5 J/K/mol
147.97 K, Crystal of intercomponent compound 1, relaxation calorimetry, x2 = 0.81	14.51 J/K/mol
147.98 K, Crystal of intercomponent compound 2, relaxation calorimeter, x2 = 0.804	14.83 J/K/mol
147.99 K, Crystal of intercomponent compound 2, relaxation calorimeter, x2 = 0.804	14.94 J/K/mol
150 K, Crystal of intercomponent compound 1, relaxation calorimetry + DSC, x2 = 0.81	14.58 J/K/mol
150 K, Crystal of intercomponent compound 2, relaxation calorimetry + DSC, x2 = 0.804	15.01 J/K/mol
152 K, Crystal of intercomponent compound 1, relaxation calorimetry, x2 = 0.81	14.84 J/K/mol
152 K, Crystal of intercomponent compound 2, relaxation calorimeter, x2 = 0.804	15.17 J/K/mol
152.02 K, Crystal of intercomponent compound 2, relaxation calorimeter, x2 = 0.804	15.29 J/K/mol
156.1 K, Crystal of intercomponent compound 1, relaxation calorimetry, x2 = 0.81	15.17 J/K/mol
156.1 K, Crystal of intercomponent compound 2, relaxation calorimeter, x2 = 0.804	15.54 J/K/mol
156.12 K, Crystal of intercomponent compound 2, relaxation calorimeter, x2 = 0.804	15.62 J/K/mol
160 K, Crystal of intercomponent compound 1, relaxation calorimetry + DSC, x2 = 0.81	15.43 J/K/mol
160 K, Crystal of intercomponent compound 2, relaxation calorimetry + DSC, x2 = 0.804	15.88 J/K/mol
160.12 K, Crystal of intercomponent compound 1, relaxation calorimetry, x2 = 0.81	15.52 J/K/mol
160.13 K, Crystal of intercomponent compound 2, relaxation calorimeter, x2 = 0.804	15.86 J/K/mol
160.14 K, Crystal of intercomponent compound 2, relaxation calorimeter, x2 = 0.804	15.96 J/K/mol
164.23 K, Crystal of intercomponent compound 1, relaxation calorimetry, x2 = 0.81	15.85 J/K/mol
164.23 K, Crystal of intercomponent compound 2, relaxation calorimeter, x2 = 0.804	16.22 J/K/mol
164.24 K, Crystal of intercomponent compound 2, relaxation calorimeter, x2 = 0.804	16.27 J/K/mol
168.29 K, Crystal of intercomponent compound 1, relaxation calorimetry, x2 = 0.81	16.17 J/K/mol
168.29 K, Crystal of intercomponent compound 2, relaxation calorimeter, x2 = 0.804	16.53 J/K/mol
168.31 K, Crystal of intercomponent compound 2, relaxation calorimeter, x2 = 0.804	16.6 J/K/mol
170 K, Crystal of intercomponent compound 1, relaxation calorimetry + DSC, x2 = 0.81	16.22 J/K/mol
170 K, Crystal of intercomponent compound 2, relaxation calorimetry + DSC, x2 = 0.804	16.67 J/K/mol
172.36 K, Crystal of intercomponent compound 1, relaxation calorimetry, x2 = 0.81	16.41 J/K/mol
172.36 K, Crystal of intercomponent compound 2, relaxation calorimeter, x2 = 0.804	16.79 J/K/mol
172.38 K, Crystal of intercomponent compound 2, relaxation calorimeter, x2 = 0.804	16.9 J/K/mol
176.43 K, Crystal of intercomponent compound 1, relaxation calorimetry, x2 = 0.81	16.71 J/K/mol
176.43 K, Crystal of intercomponent compound 2, relaxation calorimeter, x2 = 0.804	17.06 J/K/mol and 17.19 J/K/mol
180 K, Crystal of intercomponent compound 1, relaxation calorimetry + DSC, x2 = 0.81	16.94 J/K/mol
180 K, Crystal of intercomponent compound 2, relaxation calorimetry + DSC, x2 = 0.804	17.39 J/K/mol
180.45 K, Crystal of intercomponent compound 1, relaxation calorimetry, x2 = 0.81	16.95 J/K/mol
180.45 K, Crystal of intercomponent compound 2, relaxation calorimeter, x2 = 0.804	17.33 J/K/mol
180.46 K, Crystal of intercomponent compound 2, relaxation calorimeter, x2 = 0.804	17.44 J/K/mol
184.56 K, Crystal of intercomponent compound 2, relaxation calorimeter, x2 = 0.804	17.58 J/K/mol
184.57 K, Crystal of intercomponent compound 1, relaxation calorimetry, x2 = 0.81	17.2 J/K/mol
184.57 K, Crystal of intercomponent compound 2, relaxation calorimeter, x2 = 0.804	17.69 J/K/mol
188.58 K, Crystal of intercomponent compound 2, relaxation calorimeter, x2 = 0.804	17.84 J/K/mol
188.59 K, Crystal of intercomponent compound 1, relaxation calorimetry, x2 = 0.81	17.45 J/K/mol
188.59 K, Crystal of intercomponent compound 2, relaxation calorimeter, x2 = 0.804	17.97 J/K/mol
190 K, Crystal of intercomponent compound 1, relaxation calorimetry + DSC, x2 = 0.81	17.6 J/K/mol
190 K, Crystal of intercomponent compound 2, relaxation calorimetry + DSC, x2 = 0.804	18.05 J/K/mol
192.69 K, Crystal of intercomponent compound 1, relaxation calorimetry, x2 = 0.81	17.73 J/K/mol
192.69 K, Crystal of intercomponent compound 2, relaxation calorimeter, x2 = 0.804	18.09 J/K/mol
192.71 K, Crystal of intercomponent compound 2, relaxation calorimeter, x2 = 0.804	18.27 J/K/mol
196.74 K, Crystal of intercomponent compound 2, relaxation calorimeter, x2 = 0.804	18.32 J/K/mol
196.78 K, Crystal of intercomponent compound 1, relaxation calorimetry, x2 = 0.81	17.96 J/K/mol
196.78 K, Crystal of intercomponent compound 2, relaxation calorimeter, x2 = 0.804	18.47 J/K/mol
200 K, Crystal of intercomponent compound 1, relaxation calorimetry + DSC, x2 = 0.81	18.2 J/K/mol
200 K, Crystal of intercomponent compound 2, relaxation calorimetry + DSC, x2 = 0.804	18.65 J/K/mol
200.77 K, Crystal of intercomponent compound 2, relaxation calorimeter, x2 = 0.804	18.54 J/K/mol
200.8 K, Crystal of intercomponent compound 1, relaxation calorimetry, x2 = 0.81	18.22 J/K/mol
200.8 K, Crystal of intercomponent compound 2, relaxation calorimeter, x2 = 0.804	18.74 J/K/mol
204.91 K, Crystal of intercomponent compound 2, relaxation calorimeter, x2 = 0.804	18.8 J/K/mol
204.92 K, Crystal of intercomponent compound 1, relaxation calorimetry, x2 = 0.81	18.43 J/K/mol
204.93 K, Crystal of intercomponent compound 2, relaxation calorimeter, x2 = 0.804	18.97 J/K/mol
208.92 K, Crystal of intercomponent compound 2, relaxation calorimeter, x2 = 0.804	19.05 J/K/mol
208.93 K, Crystal of intercomponent compound 1, relaxation calorimetry, x2 = 0.81	18.63 J/K/mol
208.94 K, Crystal of intercomponent compound 2, relaxation calorimeter, x2 = 0.804	19.19 J/K/mol
210 K, Crystal of intercomponent compound 1, relaxation calorimetry + DSC, x2 = 0.81	18.76 J/K/mol
210 K, Crystal of intercomponent compound 2, relaxation calorimetry + DSC, x2 = 0.804	19.19 J/K/mol
213.04 K, Crystal of intercomponent compound 2, relaxation calorimeter, x2 = 0.804	19.24 J/K/mol
213.05 K, Crystal of intercomponent compound 1, relaxation calorimetry, x2 = 0.81	18.87 J/K/mol

From the NIST ThermoML archive (doi:10.1016/j.jct.2015.01.004)
